Here are results for 22 compounds from ChEMBL document CHEMBL5505957 (Eur J Med Chem, 2024).

Series [1] deals with Human immunodeficiency virus 1. As to the kind of experiment: microbe, parasite or virus in culture. Conditions: Human immunodeficiency virus 1, C8166.
Series [2] concerns Human immunodeficiency virus 1. As to the kind of experiment: microbe, parasite or virus in culture. The following applies: Human immunodeficiency virus 1, C8166. This is another data set of the same source.
Another series has as its system Rattus norvegicus. As to the kind of experiment: Anti-inflammatory activity against carrageenan-induced paw edema in Sprague-Dawley rat assessed as inhibition of paw edema. (Carrageenan injected into the paw causes an acute inflammation.)
The target in a further series is T1, Protein O-GlcNAcase (Homo sapiens, UniProt O60502).
T1 sequence (O60502 whole entry): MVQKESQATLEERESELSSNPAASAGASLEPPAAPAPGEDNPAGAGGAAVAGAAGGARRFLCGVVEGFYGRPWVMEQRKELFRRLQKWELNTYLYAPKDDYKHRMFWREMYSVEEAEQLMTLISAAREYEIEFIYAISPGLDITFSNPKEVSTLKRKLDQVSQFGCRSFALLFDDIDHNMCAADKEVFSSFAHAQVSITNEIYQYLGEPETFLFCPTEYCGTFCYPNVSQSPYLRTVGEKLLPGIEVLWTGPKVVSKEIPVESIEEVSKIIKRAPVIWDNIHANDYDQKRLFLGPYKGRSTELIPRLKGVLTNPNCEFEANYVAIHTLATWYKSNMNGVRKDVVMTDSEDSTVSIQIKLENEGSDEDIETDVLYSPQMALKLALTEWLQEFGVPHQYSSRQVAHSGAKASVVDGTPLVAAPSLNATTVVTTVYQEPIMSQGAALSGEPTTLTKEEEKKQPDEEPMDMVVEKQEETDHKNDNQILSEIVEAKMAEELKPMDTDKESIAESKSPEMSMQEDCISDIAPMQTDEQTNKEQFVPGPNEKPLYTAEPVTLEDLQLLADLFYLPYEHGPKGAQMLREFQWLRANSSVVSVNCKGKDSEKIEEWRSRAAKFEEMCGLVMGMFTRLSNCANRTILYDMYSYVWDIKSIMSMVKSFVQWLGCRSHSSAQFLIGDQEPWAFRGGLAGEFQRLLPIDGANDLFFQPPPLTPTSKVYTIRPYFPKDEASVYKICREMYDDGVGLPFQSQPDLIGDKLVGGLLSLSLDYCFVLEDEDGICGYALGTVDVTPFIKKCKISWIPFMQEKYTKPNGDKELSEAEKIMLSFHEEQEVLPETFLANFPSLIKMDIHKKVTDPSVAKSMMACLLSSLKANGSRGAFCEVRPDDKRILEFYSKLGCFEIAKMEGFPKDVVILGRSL

Series [3] is described as follows: Cytotoxicity against MDCK cells assessed as reduction in cell viability incubated for 48 hrs by MTT assay. Conditions: dog. For orientation: Formazan colour is commonly taken as a measure of viable cells.
The target of a further series is Cholinesterase (Equus caballus, UniProt P81908). As to the kind of experiment: Inhibition of equine serum BuChE using butyrylthiocholine chloride as substrate by Ellman's method. A general note: DTNB colorimetry detects thiols as they appear.
Series [4] deals with Human immunodeficiency virus 1. In words: Anti-HIV activity against wild type HIV-1 IIIB infected in human MT4 cells assessed as inhibition of virus-induced cytopathic effect incubated for 5 days by MTT assay. Conditions: Human immunodeficiency virus 1, IIIB, MT4, 120 h.
Series [5] can be described thus: Cytotoxicity against African green monkey Vero E6 cells assessed as reduction in cell viability measured after 72 hrs by MTS assay.
For series [6], the target named is Replicase polyprotein 1ab (Severe acute respiratory syndrome coronavirus 2, UniProt P0DTD1).
For series [7], the system named is Human immunodeficiency virus 1. As to the kind of experiment: Antiviral activity against HIV-1 infected in human MT4 cells assessed as inhibition of virus-induced cytopathic effect measured after 5 days by spectrophotometric MTT assay. Conditions: Human immunodeficiency virus 1, MT4, 120 h.
The nature of series [8]: Inhibition of Influenza A virus H1N1 neuraminidase.
For series [9], the target named is T2, M-phase inducer phosphatase 3 (Homo sapiens, UniProt P30307).
T2 sequence (P30307 whole entry): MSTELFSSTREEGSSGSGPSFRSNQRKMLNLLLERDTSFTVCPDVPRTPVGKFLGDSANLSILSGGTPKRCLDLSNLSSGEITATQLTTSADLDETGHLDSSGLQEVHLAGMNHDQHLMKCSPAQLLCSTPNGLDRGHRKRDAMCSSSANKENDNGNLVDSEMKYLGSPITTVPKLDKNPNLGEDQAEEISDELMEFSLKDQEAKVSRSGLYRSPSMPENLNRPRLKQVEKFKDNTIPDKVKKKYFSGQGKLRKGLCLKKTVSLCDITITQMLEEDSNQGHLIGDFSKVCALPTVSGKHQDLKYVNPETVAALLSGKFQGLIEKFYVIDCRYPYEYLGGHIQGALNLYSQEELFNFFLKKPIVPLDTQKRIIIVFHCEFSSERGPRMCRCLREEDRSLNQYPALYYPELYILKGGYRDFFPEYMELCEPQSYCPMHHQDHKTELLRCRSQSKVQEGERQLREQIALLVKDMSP
As to the kind of experiment: Inhibition of full-length recombinant human CDC25C incubated for 5 to 8 mins by fluorescence based assay.

Series [10] is described as follows: Inhibition of Serratia marcescens Chitinase B.
Series [11] has as its target T3, Human immunodeficiency virus type 1 protease (Human immunodeficiency virus 1, UniProt Q72874).
Series [12] has as its system Aspergillus fumigatus. In words: Antifungal activity against Aspergillus fumigatus by CLSI based broth microdilution method.
Series [13] has as its system Aspergillus fumigatus. In words: Antimicrobial activity against Aspergillus fumigatus assessed as fungal growth inhibition.
Series [14] concerns the target T3, Human immunodeficiency virus type 1 protease. In words: Binding affinity to HIV-1 protease assessed as inhibition constant.
The nature of series [15]: Inhibition of Serratia marcescens Chitinase A.

Converted amounts (≈) assume the structure as drawn.

Chain of Cholinesterase (P81908 whole entry): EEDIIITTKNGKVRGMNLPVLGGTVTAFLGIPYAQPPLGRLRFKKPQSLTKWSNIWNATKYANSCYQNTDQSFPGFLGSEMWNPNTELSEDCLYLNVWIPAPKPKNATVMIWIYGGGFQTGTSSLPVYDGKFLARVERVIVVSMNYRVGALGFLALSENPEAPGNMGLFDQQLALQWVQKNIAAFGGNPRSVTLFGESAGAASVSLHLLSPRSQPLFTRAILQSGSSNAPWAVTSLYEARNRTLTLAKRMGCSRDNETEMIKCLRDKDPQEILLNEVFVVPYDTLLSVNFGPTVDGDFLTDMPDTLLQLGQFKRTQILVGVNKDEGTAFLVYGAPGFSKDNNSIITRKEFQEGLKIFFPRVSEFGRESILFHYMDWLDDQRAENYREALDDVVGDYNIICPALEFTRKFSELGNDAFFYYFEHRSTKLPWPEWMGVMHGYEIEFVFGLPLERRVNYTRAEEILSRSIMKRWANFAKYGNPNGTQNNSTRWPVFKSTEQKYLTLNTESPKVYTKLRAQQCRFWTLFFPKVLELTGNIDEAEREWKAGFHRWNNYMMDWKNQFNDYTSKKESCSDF

By IC50 is commonly meant the concentration needed to halve the response being measured. As to `COc1ccc(S(=O)(=O)N(CC(C)C)C[C@@H](O)[C@H](Cc2ccccc2)n2cc(CNC(=O)c3ccc(CNC(=O)OC(C)(C)C)cc3)nn2)cc1`, the results for the IC50 in [1] and in series [2] were 52 nM and 17 nM, respectively.

Broadly, the ED50 is the dose at which the effect has come halfway, by size or by number of responders. Consider `Cc1cc(-n2cc(-c3ccc(F)cc3)nn2)n(-c2ccc(S(C)(=O)=O)cc2)n1`, for which the ED50 in the series on Rattus norvegicus came to 0.44 mg/kg.

As for `Cc1cc(-n2cc(-c3ccc(N)cc3)nn2)n(-c2ccc(S(C)(=O)=O)cc2)n1`, the ED50 in the series on Rattus norvegicus was determined as 0.12 mg/kg.

In turn, `CO[C@@H]1O[C@H](CO)[C@@H](O)[C@H](O)[C@H]1n1cc(CCc2ccccc2)nn1` had an IC50 against Protein O-GlcNAcase of 500 nM.

By CC50 is commonly meant the concentration at which the toxic effect on the cells reaches its halfway point. For the compound `Cc1[nH]c(=O)[nH]c(=O)c1CCCc1cn(C2OC(CO)C(O)C2O)nn1` (configuration not stated), the CC50 at 48 h in [3] was 79000 nM.

With `O=C(CCCCC1CCSS1)NCc1cn(CCCCOc2ccc3c(c2)OCCC3=O)nn1` (configuration not stated), the concentration for half-maximal inhibition (IC50) at Cholinesterase was 7550 nM.

In the case of `COC(=O)c1ccc(-n2cc(-c3cc(C)c(Oc4ccnc(Nc5ccc(C#N)cc5)n4)c(C)c3)nn2)cc1`, in [4], the concentration for half-maximal inhibition (IC50) came out at 13 nM.

Regarding `CC1=NN(c2ccc(Cl)cc2)C(=O)/C1=C\c1ccc(OCc2cn(CC(=O)NCc3ccc(C(=O)O)cc3)nn2)cc1`, in series [5], the IC50 at 72 h stood at 22100 nM. In addition, half-maximal inhibition in series [6] (IC50) was put at 3160 nM.

For orientation: EC50 means the concentration needed to bring the measured effect to its halfway point. On to `Cc1c(Cc2c(Cl)cccc2Cl)nc(SCc2cn(Cc3ccc(S(N)(=O)=O)cc3)nn2)[nH]c1=O`, for which the EC50 in [7] was 3220 nM.

In the case of `CC(=O)O[C@H]1[C@H](OCc2cn(CC3=NCCS3)nn2)OC[C@@H](OC(C)=O)[C@H]1OC(C)=O`, the IC50 in series [8] came out at 1640 nM.

Take `CO[C@@H]1O[C@H](CO)[C@@H](O)[C@H](O)[C@H]1n1cc(COc2ccccc2)nn1`: the midpoint of inhibition against Protein O-GlcNAcase, the IC50, lay at 720 nM.

On to `CC(NC1=C(Cl)C(=O)c2cccnc2C1=O)c1cn(Cc2ccc(CO)cc2)nn1` (configuration not stated), for which the IC50 in series [9] came out at 60 nM.

The compound `CNC(=O)NC(=O)NCCC[C@@H](NC(=O)CN)C(=O)N(Cc1ccccc1)Cc1ccccc1` returned an IC50 in [10] of 580 nM.

The compound `COC(=O)[C@@H](NC(=O)OCc1cn([C@@H](Cc2ccccc2)[C@H](O)CN(CC(C)C)S(=O)(=O)c2ccc(OC)cc2)nn1)c1ccccc1` showed an IC50 in series [11] of 10 nM.

Regarding `CO[C@@H]1O[C@H](CO)[C@@H](O)[C@H](O)[C@H]1n1cc(CNc2ccccc2)nn1`, the IC50 against Protein O-GlcNAcase was 520 nM.

`COc1ccc(S(=O)(=O)N(CC(C)C)C[C@@H](O)[C@H](Cc2ccccc2)n2cc(CNC(=O)c3ccncc3)nn2)cc1` showed an IC50 in [11] of 10 nM.

Take `COc1ccc(S(=O)(=O)N(CC(C)C)C[C@@H](O)[C@H](Cc2ccccc2)n2cc(CNC(=O)N[C@H]3c4ccccc4C[C@H]3O)nn2)cc1`: in series [1], the IC50 is 46 nM.

Take `COC(=O)[C@@H](C)NP(=O)(OCC1OC(n2cc(CN3CCC(=O)NC3=O)nn2)C(O)C1O)Oc1ccccc1` (some centres not stated): the midpoint of inhibition in series [8], the IC50, lay at 25000 nM.

The MIC is the smallest concentration in the dilution series that meets the test's criterion for growth inhibition. For `C=CCc1ccc(OCc2cn([C@H]3O[C@H](COC(C)=O)[C@@H](OC(C)=O)[C@H](OC(C)=O)[C@H]3OC(C)=O)nn2)c(OC)c1`, in the series on Aspergillus fumigatus [12], the IC50 was 5420 nM. Moreover, in the series on Aspergillus fumigatus [13], the MIC came to 10.9 µM (≈ 6.25 µg/mL).

Turning to `CNC(=O)NC(=N)NCCC[C@@H](NC(=O)Cn1nncc1CO/N=C/c1ccnc2ccccc12)C(=O)N(Cc1ccccc1)Cc1ccccc1`, half-maximal inhibition in series [10] (IC50) required 22 nM.

Usually Ki stands for the dissociation constant of the complex between target and ligand, obtained from inhibition or displacement. Consider `COc1ccc(S(=O)(=O)N(CC(C)C)C[C@@H](O)C(Cc2ccccc2)n2cc(COC(=O)NC3c4ccccc4C[C@H]3O)nn2)cc1` (single isomer, unassigned), for which the Ki in series [14] turned out to be 1.7 nM. Inhibition in [11] was half-maximal at 6 nM (IC50).

Turning to `CNC(=O)NC(=N)NCCC[C@@H]1NC(=O)[C@@H](C)NC(=O)C[C@@H](C(=O)O)NC(=O)C[C@@H](C(=O)O)NC(=O)[C@H](Cc2ccccc2)N(C)C1=O` [ARGIFIN], the results for the IC50 in [10] and in [15] were 6400 nM and 25 nM, respectively.
